This data set relates to Caco-2 cells. Put plainly: Uptake by Caco-2 cell monolayer (fluorescence microscopy of DOX). In kind it is cell-based. Particulars: Caco-2 monolayer, 17.2 μm, 10 min incubation. The method, then: To investigate the cellular uptake of the released DOX from CN-DOX-IO by the small intestine in vitro, the monolayer of Caco-2 cells was incubated with CN-DOX-IO at a dosage of 17.2 μm for different lengths of time (10, 30 and 60 min). For comparison, cells incubated with DOX-IO and DOX were examined as controls. The intracellular accumulation of DOX was examined by the fluorescent microscope utilizing the fluorescence of DOX.

For the compound `COc1cccc2c1C(=O)c1c(O)c3c(c(O)c1C2=O)C[C@@](O)(C(=O)CO)C[C@@H]3O[C@H]1C[C@H](N)[C@H](O)[C@H](C)O1` [free DOX, doxorubicin], the “intracellular localisation of DOX fluorescence signal” value is “observed in the nucleus”.

The values are drawn from patent publication US10537531B2, “Casein coated drug-loaded iron oxide nanoparticles” (Emory University, priority 2014, dated 2020).
